≈ marks a conversion by molar mass, not a printed value. Bridge positions count the residues as written; N and C are the ends. Peptide text beside a SMILES is read from it.
Assays:
S. aureus CVCC 546 [1] = experiment: Artificial gastric juice stability, MIC after treatment; format: in vitro ADME, Staphylococcus aureus
S. aureus CVCC 546 [2] = experiment: Salt stability, MIC after treatment; format: physicochemical, Staphylococcus aureus; conditions: then MIC assay
S. aureus ATCC 43300 = experiment: Post-antibiotic effect (PAE) assay; format: cell-based, Staphylococcus aureus
From the text: The method of PAE of AP138L-arg26 against MRSA ATCC 43300 or S. aureus CVCC 546 was described previously (Wang et al. [2018]). The formula is PAE = T − C (T is the time required for the number of colonies in the sample treatment group to increase by tenfold, and C is the time required for the untreated group).

[3] = test system: Staphylococcus aureus CVCC 546; experiment: MIC and MBC, broth microdilution; format: cell-based
Description: (§1) To determine the MIC values of AP138L-arg26, we used the broth microdilution technique as previously described (Andrews. [2001]; Wiegand et al. [2008]). In brief, AP138L-arg26 peptide were diluted from 1280 to 2.5 µg/mL and added to a 96-cells plate with 10 µL per well. The bacteria in the logarithmic stage were diluted to 10^5 CFU/mL with 90 µL per well. […] The MBC method was also based on the CLSI 2021 guidelines.

[4] = test system: Staphylococcus aureus ATCC 43300; experiment: MIC and MBC, broth microdilution; format: cell-based
Description: as §1

[5] = test system: Staphylococcus aureus E48; experiment: MIC and MBC, broth microdilution; format: cell-based
Description: as §1

[6] = test system: Streptococcus agalactiae CAU-FRI-2022-02; experiment: MIC and MBC, broth microdilution; format: cell-based
Description: as §1

[7] = test system: Streptococcus agalactiae CAU-FRI-2022-01; experiment: MIC and MBC, broth microdilution; format: cell-based
Description: as §1

[8] = test system: Staphylococcus aureus CAAS-FRI-2023-02; experiment: MIC and MBC, broth microdilution; format: cell-based
Description: as §1

[9] = test system: Staphylococcus epidermidis ATCC 12228; experiment: MIC and MBC, broth microdilution; format: cell-based
Description: as §1

[10] = test system: Staphylococcus aureus ATCC 25923; experiment: MIC and MBC, broth microdilution; format: cell-based
Description: as §1

[11] = test system: Streptococcus dysgalactiae CVCC 3938; experiment: MIC and MBC, broth microdilution; format: cell-based
Description: as §1

[12] = test system: Streptococcus agalactiae ATCC 13813; experiment: MIC and MBC, broth microdilution; format: cell-based
Description: as §1

[13] = test system: Staphylococcus epidermidis ATCC 35984; experiment: MIC and MBC, broth microdilution; format: cell-based
Description: as §1

[14] = test system: Staphylococcus aureus CAAS-FRI-2023-01; experiment: MIC and MBC, broth microdilution; format: cell-based
Description: as §1

S. aureus CVCC 546 [15] = experiment: Growth curve of S. aureus; format: cell-based, Staphylococcus aureus; conditions: AP138L-arg26 8 µg/mL (2 × MIC), ceftiofur sodium 0.25 µg/mL (1/8 MIC), alone or combined; 1 × 10^5 CFU/mL
Description: Samples were taken during the logarithmic growth of S. aureus and diluted to 1 × 10^5 CFU/mL (Delpech et al. [2019]). Different concentrations of AP138L-arg26, ceftiofur sodium, or a combination of them with an equal volume of bacteria were added to a 96-well microplate. The growth curves were recorded using a fully automatic growth curve recording instrument.

S. aureus = experiment: Membrane fluidity assay, Laurdan GP; format: cell-based, Staphylococcus aureus; conditions: 2 × MIC; 10 µM Laurdan; untreated 0.22
Description: The final concentration of 10 µM Laurdan was used to detect the effect of AP138L-arg26 on bacterial cell membrane fluidity (Shi et al. [2022]). Briefly, (1) co-incubation of bacteria with Laurdan; (2) the stained bacteria are co-incubated with the peptide; (3) spectrophotometer (Tecan, Männedorf, Switzerland) detection. The calculation formula: generalized polarization (GP) = (I435 − I490)/(I435 + I490).

[16] = 99.99% of bacteria killed, plated on MHA
[17] = broth microdilution, 10^5 CFU/mL, 37 °C, 18 h

CC[C@H](C)[C@@H]1NC(=O)[C@H](CO)NC(=O)[C@H](CCCCN)NC(=O)[C@@H]2CSSC[C@@H](C(=O)N[C@@H](Cc3ccc(O)cc3)C(=O)O)NC(=O)[C@H](CCCCN)NC(=O)[C@@H]3CSSC[C@H](NC(=O)[C@H](CCCNC(=N)N)NC(=O)[C@H](CC(C)C)NC(=O)[C@H](CC(=O)O)NC(=O)[C@H](CC(=O)O)NC(=O)[C@H](CCC(=O)O)NC(=O)[C@H](CO)NC(=O)[C@H](Cc4c[nH]c5ccccc45)NC(=O)[C@@H]4CCCN4C(=O)CNC(=O)[C@H](CC(N)=O)NC(=O)[C@@H](NC(=O)CNC(=O)[C@H](Cc4ccccc4)NC(=O)CN)CSSC[C@H](NC(=O)[C@H](Cc4ccc(O)cc4)NC(=O)CNC(=O)CNC(=O)[C@H](CCCNC(=N)N)NC(=O)[C@H](Cc4ccc(O)cc4)NC(=O)CNC(=O)[C@H](CCCCN)NC1=O)C(=O)N[C@@H](C)C(=O)N[C@@H](CCCCN)C(=O)NCC(=O)NCC(=O)N[C@@H](Cc1ccccc1)C(=O)N[C@@H](C(C)C)C(=O)N3)C(=O)N[C@@H](Cc1c[nH]cn1)C(=O)N[C@@H](CCCNC(=N)N)C(=O)N[C@@H](Cc1c[nH]cn1)C(=O)N2 [AP138L-arg26] (H-GFGCNGPWSEDDLRCHRHCKSIKGYRGGYCAKGGFVCKCY-OH; disulfide 4-30, 15-37, 19-39; N-terminus and C-terminus assumed)
antimicrobial activity after gastric juice (S. aureus CVCC 546 [1]; artificial gastric juice, MIC assay): unaffected | MIC, Gastric juice (0.25 h) (S. aureus CVCC 546 [1]; peptide in artificial gastric juice for 0.25 h, then MIC assay): 4 µg/mL (≈ 0.898 µM) | MIC, Gastric juice (0.5 h) (S. aureus CVCC 546 [1]; peptide in artificial gastric juice for 0.5 h, then MIC assay): 4 µg/mL (≈ 0.898 µM) | MIC, Gastric juice (1 h) (S. aureus CVCC 546 [1]; peptide in artificial gastric juice for 1 h, then MIC assay): 4 µg/mL (≈ 0.898 µM) | MIC, Gastric juice (2 h) (S. aureus CVCC 546 [1]; peptide in artificial gastric juice for 2 h, then MIC assay): 8 µg/mL (≈ 1.8 µM) | MIC, CaCl2 (2.5 mM) (S. aureus CVCC 546 [2]; peptide incubated with 2.5 mM CaCl2 for 1 h at 37 °C): 8 µg/mL | MIC, KCl (2.5 mM) (S. aureus CVCC 546 [2]; peptide incubated with 2.5 mM KCl for 1 h at 37 °C): 8 µg/mL | MIC, MgCl2 (2.5 mM) (S. aureus CVCC 546 [2]; peptide incubated with 2.5 mM MgCl2 for 1 h at 37 °C): 16 µg/mL | MIC, CaCl2 (5 mM) (S. aureus CVCC 546 [2]; peptide incubated with 5 mM CaCl2 for 1 h at 37 °C): 16 µg/mL | MIC, KCl (5 mM) (S. aureus CVCC 546 [2]; peptide incubated with 5 mM KCl for 1 h at 37 °C): 8 µg/mL | MIC, MgCl2 (5 mM) (S. aureus CVCC 546 [2]; peptide incubated with 5 mM MgCl2 for 1 h at 37 °C): 16 µg/mL | MIC, NaCl (50 mM) (S. aureus CVCC 546 [2]; peptide incubated with 50 mM NaCl for 1 h at 37 °C): 8 µg/mL | MIC, NaCl (100 mM) (S. aureus CVCC 546 [2]; peptide incubated with 100 mM NaCl for 1 h at 37 °C): 8 µg/mL | MIC, NaCl (150 mM) (S. aureus CVCC 546 [2]; peptide incubated with 150 mM NaCl for 1 h at 37 °C): 8 µg/mL | MIC, NaCl (200 mM) (S. aureus CVCC 546 [2]; peptide incubated with 200 mM NaCl for 1 h at 37 °C): 16 µg/mL | MIC, NaCl (300 mM) (S. aureus CVCC 546 [2]; peptide incubated with 300 mM NaCl for 1 h at 37 °C): 16 µg/mL | MIC, CaCl2 ([…]) (S. aureus CVCC 546 [2]; peptide incubated with […] CaCl2 for 1 h at 37 °C): 8 µg/mL | MIC, KCl ([…]) (S. aureus CVCC 546 [2]; peptide incubated with […] KCl for 1 h at 37 °C): 8 µg/mL | MIC, MgCl2 ([…]) (S. aureus CVCC 546 [2]; peptide incubated with […] MgCl2 for 1 h at 37 °C): 8 µg/mL | PAE (S. aureus ATCC 43300; 1 × MIC, PAE = T − C): 0.9 h | PAE (S. aureus ATCC 43300; 2 × MIC, PAE = T − C): 1.25 h | PAE (S. aureus ATCC 43300; 4 × MIC, PAE = T − C): 1.91 h | PAE (S. aureus ATCC 43300; as given in the abstract, concentration not given): 1.91 h | MBC [3, 16]: 32 µg/mL (≈ 7.18 µM) | MIC [3, 17]: 4 µg/mL (≈ 0.898 µM) | MBC [4, 16]: 8 µg/mL (≈ 1.8 µM) | MIC [4, 17]: 8 µg/mL (≈ 1.8 µM) | MBC [5, 16]: 8 µg/mL (≈ 1.8 µM) | MIC [5, 17]: 2 µg/mL (≈ 0.449 µM) | MBC [6, 16]: 32 µg/mL (≈ 7.18 µM) | MIC [6, 17]: 4 µg/mL (≈ 0.898 µM) | MBC [7, 16]: 32 µg/mL (≈ 7.18 µM) | MIC [7, 17]: 4 µg/mL (≈ 0.898 µM) | MBC [8, 16]: 32 µg/mL (≈ 7.18 µM) | MIC [8, 17]: 8 µg/mL (≈ 1.8 µM) | MBC [9, 16]: 16 µg/mL (≈ 3.59 µM) | MIC [9, 17]: 4 µg/mL (≈ 0.898 µM) | MBC [10, 16]: 32 µg/mL (≈ 7.18 µM) | MIC [10, 17]: 16 µg/mL (≈ 3.59 µM) | MBC [11, 16]: 32 µg/mL (≈ 7.18 µM) | MIC [11, 17]: 4 µg/mL (≈ 0.898 µM) | MBC [12, 16]: 8 µg/mL (≈ 1.8 µM) | MIC [12, 17]: 4 µg/mL (≈ 0.898 µM) | MBC [13, 16]: 16 µg/mL (≈ 3.59 µM) | MIC [13, 17]: 8 µg/mL (≈ 1.8 µM) | MBC [14, 16]: 16 µg/mL (≈ 3.59 µM) | MIC [14, 17]: 4 µg/mL (≈ 0.898 µM) | effect on the growth of S. aureus CVCC 546 (S. aureus CVCC 546 [15]): little effect on the growth | Laurdan GP (S. aureus): 0.18

From publication PMC10787893, “Expression and characterization of the new antimicrobial peptide AP138L-arg26 anti Staphylococcus aureus” (Applied Microbiology and Biotechnology, 2024)
